This passage reports DC50 and Dmax results from patent US12441706B2, “Protein degradation agent compound preparation method and application” (SHANGHAI JEMINCARE PHARMACEUTICALS CO., LTD., priority 2019, dated 2025).

The target of this assay is T1, androgen receptor (Homo sapiens, UniProt P10275).
T1 construct: endogenous in cells; host or cells: VCaP cells
T1 sequence (P10275 1-920): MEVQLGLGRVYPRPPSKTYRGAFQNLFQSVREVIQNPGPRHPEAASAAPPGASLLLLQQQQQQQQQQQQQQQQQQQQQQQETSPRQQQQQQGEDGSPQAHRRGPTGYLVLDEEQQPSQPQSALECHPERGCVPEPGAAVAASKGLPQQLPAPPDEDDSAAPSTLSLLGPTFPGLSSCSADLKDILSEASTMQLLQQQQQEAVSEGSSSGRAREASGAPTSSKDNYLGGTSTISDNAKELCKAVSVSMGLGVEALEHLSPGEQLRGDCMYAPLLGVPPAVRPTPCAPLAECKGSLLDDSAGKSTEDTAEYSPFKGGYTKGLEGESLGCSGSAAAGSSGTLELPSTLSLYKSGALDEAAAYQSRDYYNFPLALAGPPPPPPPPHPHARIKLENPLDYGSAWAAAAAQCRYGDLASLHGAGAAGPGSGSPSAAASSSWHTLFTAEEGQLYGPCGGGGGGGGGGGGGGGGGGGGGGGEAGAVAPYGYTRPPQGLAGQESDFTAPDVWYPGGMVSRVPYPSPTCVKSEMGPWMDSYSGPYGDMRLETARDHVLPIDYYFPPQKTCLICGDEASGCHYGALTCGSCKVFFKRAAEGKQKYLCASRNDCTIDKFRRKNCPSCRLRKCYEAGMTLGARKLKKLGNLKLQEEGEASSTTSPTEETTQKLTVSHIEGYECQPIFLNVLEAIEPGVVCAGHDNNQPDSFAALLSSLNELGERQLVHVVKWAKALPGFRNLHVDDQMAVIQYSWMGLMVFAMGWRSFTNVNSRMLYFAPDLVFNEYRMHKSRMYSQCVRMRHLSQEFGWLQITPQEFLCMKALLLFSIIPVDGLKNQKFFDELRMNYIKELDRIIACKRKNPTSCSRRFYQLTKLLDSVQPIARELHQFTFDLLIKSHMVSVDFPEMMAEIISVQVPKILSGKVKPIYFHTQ
Put plainly: In-Cell-Western determination of androgen receptor degradation in VCaP cells. Format: cell-based. The note with it: 24 hours treatment; for DC50: concentration for half of the maximal degradation of AR in VCaP cells; for Dmax: maximum degradation of AR in VCaP cells. As to the method:
The determination evaluated the properties of the compounds in Vcap cells. Intracellular androgen receptor was determined by In-Cell-Western according to the determination steps described below.
In poly-D-Lysin pretreated 96-well cell culture plate (Corning 3599), Vcap cells were divided into […] volume, and inoculated with 50,000 cells/well in Vcap cell assay medium [DMEM containing phenol red (Gibco catalog number: 11995065); fetal bovine serum FBS (Gibco catalog number: 10099141C)]. Cells were cultured for at least two days.
1. First treated cells with compound. Compounds were gradient diluted with DMSO and cell culture medium, so that DMSO contained in cell culture plates was diluted to 0.5% —polypropylene plates were used according to the following protocol:
(1)(i) 200× stock plate in DMSO was prepared; (ii) 10 mM stock solution was diluted 1:4 with DMSO (10 μL stock solution+40 μL DMSO)=2000 μM, then entered into row 2; (iii) 1:4 (10 μL protac+40 μL DMSO) gradient dilution was performed in row 2 to row 9, and row 1 was reserved for 2000 μM reference compound and row 10 for DMSO. (iv) A total of 8 concentrations (final concentrations on the 200×plate were 2000 μM, 400 μM, 80 μM, etc.). (i) 3×stock solution in medium was prepared; (ii) 3 μL of 200× stock solution was transferred to 197 μL of culture medium (using 12-channel pipette, from line 1 to line 10), i.e. 3× stock solution plate. (iii) The stock solution plate was mixed evenly. (3) (i) The culture medium of Vcap cells was replaced with fresh culture medium, 100 μL volume culture medium. (ii) The well-mixed 3×stock solution was transferred to the cell culture plate (using 12-channel pipette, and 50 μL of stock solution was transferred from line 1 to line 10). (iii) Cells were cultured for 24 hours.
2. The expression level of intracellular androgen receptor after compound treatment was […] and determined according to the following method.
(1)(i) Equal volume of 8% paraformaldehyde was added to the cell culture plate for cell fixation. The fixing solution in the cell plate was discarded and washed three times with PBS. (ii) Triton solution (1:1000 dilution of the stock solution) was prepared. The solution in the cell plate was discarded, and 200 μL of Triton diluent was added into each well. (iii) 2×blocking solution (1:4 dilution of 10×blocking stock solution) was prepared. The solution in the cell plate was discarded, and 100 μL of 2×blocking solution was added into each well. (iv) Primary antibody solution (Androgen receptor Rabbbit mAb, Cell Signaling Technology catalog number: 5153; 1:1000 dilution) was prepared. The solution in the cell plate was discarded, 100 μL volume of primary antibody diluent was added to each well, and incubated at 4° C. overnight. (v) The primary antibody solution was discarded and the cell plate was washed with 1×Wash buffer. (vi) Secondary antibody solution (GOAT Antirabbit IgG (H+L), HRP, Thermo catalog number: 31460; 1:5000 dilution) was prepared, and 100 μL volume of secondary antibody dilution was added to each well for incubation. (vii) The secondary antibody solution in the cell plate was discarded and the cell plate was washed with 1× Wash buffer. (viii) TMB chromogenic solution (BD catalog number: 550534) was prepared, and 100 μL chromogenic solution was added into each well. (ix) 50 μL volume of stop solution (BD catalog number: 550534) was added to each well. (x) The absorption values at OD 450 nm and 570 nm were read though EnVision. (2)(i) Normalized analysis was performed on the number of cells in each well. The solution in the cell plate was discarded, and washed with wash buffer for three times. (ii) Janus dilution (1:3 dilution) was prepared. (iii) 50 μL volume diluent was added to each well for incubation. (iv) The solution in the plate was discarded and washed with deionized water. […]

As to `CC1(C)C(=O)N(c2ccc(C#N)c(Cl)c2)c2ccc(-c3ccc(N4CC(CN5CCN(c6ccc7c(c6)C(=O)N(C6CCC(=O)NC6=O)C7=O)CC5)C4)cc3)cc21` (stereo not drawn) [Compound 1], it took 35 nM to reach half-maximal degradation (DC50) and the maximal degradation (Dmax) (in general, the greatest extent of degradation seen) was 68%.

Consider `CC1(C)C(=O)N(c2ccc(C#N)c(C(F)(F)F)c2)c2ccc(-c3ccc(N4CC(CN5CCN(c6ccc7c(c6)C(=O)N(C6CCC(=O)NC6=O)C7=O)CC5)C4)cc3)cc21` (stereo not drawn) [Compound 3], for which the 50% degradation concentration (DC50) (as a rule, the concentration at which degradation of the target reaches its halfway point) is 76 nM and the Dmax is 60%.

As to `CC1(C)C(=O)N(c2ccc(C#N)c(Cl)c2)c2ccc(-c3ccc(N4CC(CN5CCN(c6ccc7c(c6)C(=O)N(C6CCC(=O)NC6=O)C7=O)CC5)C4)nc3F)cc21` (stereo not drawn) [Compound 14], half-maximal degradation (DC50) was put at 94 nM and the maximal degradation (Dmax) came out at 85%.
